# Test results reported in patent US7501399B2, “Immunoeffector compounds” (Corixa Corporation, priority 2000, dated 2009).
# What was measured:
# Rabbit pyrogen test = format: in vivo; conditions: i.v. 10 μg/Kg dose
# Source text: In an effort to obtain an immunostimulant that has low pyrogenicity, synthetic molecules have been prepared which share structural similarities with the MPL® immunostimulant (see U.S. patent application Ser. No. 09/810,915, Filed on Mar. 16, 2001, and the present invention). These novel molecules which are collectively called aminoalkyl glucosaminide phosphates (AGPs), consist of an acylated […] moiety linked to an acylated aminoalkyl group (Johnson et al. (1999) Bioorg. Med. Chem. Lett. 9: 2273-2278; PCT/WO98/50399 and references therein). […] The substitution of different chemical moieties within the aminoalkyl structures was designed into the AGPs in anticipation of optimizing stability and solubility properties. Thus the AGPs can be broadly separated into several families based on the structure of their aminoalkyl groups. […] Here we report on studies of the adjuvant properties of a class of AGPs which induce minimal activity in both the rabbit pyrogen test and the ex vivo cytokine assay.
# [1] = tested on: HBsAg (Hepatitis B Surface Antigen); test: Adjuvant activity towards HBsAg, serum titers by ELISA (Example 2); format: in vivo, BALB/c mice
# Procedure: Vaccines were prepared by mixing the adjuvant-containing TEoA (triethanolamine) formulations with recombinant HBsAg. Titers to HBsAg were determined by ELISA from pooled sera (5 mice/group) collected 21 days post-secondary vaccination (Table 1). The nonimmune controls were not vaccinated.
# HBsAg = test: Adjuvant activity towards HBsAg, IgG1 and IgG2a isotype titers by ELISA (Example 4); format: in vivo, BALB/c mice
# Procedure: IgG1 and IgG2a isotype titers to HBsAg were determined by ELISA from pooled sera collected 21 days post secondary (Table 3). The nonimmune controls were not vaccinated. […] RC-553 stimulated titers equivalent to the positive controls, MPL® immunostimulant (Table 3).
# TNF-α = test: Ex vivo cytokine induction in human whole blood, TNF-α sandwich ELISA; format: cell-based; conditions: 1, 5 and 10 μg/ml in the assay; 4 hr at 37° C.
# Procedure: (§1) The effects of RC-553 on the elaboration of TNF-α and IL-1β was measured under ex vivo conditions on human peripheral blood mononuclear cells. MPL® immunostimulant and RC-553 were formulated in aqueous solutions of 0.2% TEoA/WFI.
# (§2) Human whole blood was used to evaluate the ability of glycolipids (AGPs) to induce proinflammatory cytokines. Human whole blood is collected into heparinized tubes and 0.45 ml of whole blood is admixed with 0.05 ml phosphate buffered saline (PBS, pH 7.4) containing the glycolipid (i.e., the test compounds). The tubes are incubated for 4 hr at 37° C. on a shaker apparatus. The samples are then diluted with 1.5 ml sterile PBS and centrifuged. The supernatants are removed and analyzed for […] TNF-α and IL-1β by sandwich ELISA using R&D Systems' Quantikine immunoassay kits for human TNF-α and IL-1β.
# IL-1β = test: Ex vivo cytokine induction in human whole blood, IL-1β sandwich ELISA; format: cell-based
# Procedure: as §1, §2
# iNOS = iNOS induction in IFN-γ primed J774 murine macrophages, Greiss reagent nitrite release; format: cell-based; conditions: J774 cells primed with IFN-γ
# Procedure: This example illustrates the effects of various glycolipids on iNOS induction in J774 murine macrophages. The murine macrophage cell line J774 can be primed by IFN-γ in vitro and is very responsive to subsequent LPS stimulation of iNOS upregulation as measured by a standard Greiss reagent ELISA assay procedure. The assay utilizes J774 cells seeded at 1×10^6/mL with 30 mL/flask and with IFN-γ added at 100 units/mL for 16-24 hrs. Cells are then harvested and washed and resuspended at 2×10^5/well in a 96-well plate and allowed to adhere. Glycolipid compounds are serially diluted into the wells for a test group and the resulting cultures are incubated for another 36-40 hrs before culture supernatants are collected from Greiss reagent analysis of nitrite release (Green et al. (1982) Anal. Biochem. 126: 131-138). Nitrite content closely parallels iNOS function.
# Potency was determined as the concentration (ng/mL) of glycolipid in culture capable of inducing one-half maximal induction of nitrite (ED50). The lower the ED50 number, the greater the potency for iNOS induction. The ED50 was cacluated according to methods set out in Johnson et al., (1999) J Med Chem. 42: 4640-4649.
# [2] = anti-HBsAg, 2 μg HBsAg + 20 μg adjuvant s.c. day 0 and 21, pooled sera 21 days post-secondary
# [3] = anti-HBsAg, 2.0 μg HBsAg + 25 μg adjuvant s.c. day 0 and 21, pooled sera 21 days post secondary
substance,measurement,setting,value
N—[(R)-3-Tetradecanoyloxytetradecanoyl]-(S)-2-pyrrolidinomethyl 2-Deoxy-4-O-phosphono-2-[(R)-3-tetradecanoyloxytetradecanoylamino]-3-O—[(R)-3-tetradecanoyloxytetradecanoyl]-β-D-glucopyranoside Triethylammonium Salt [RC-553],Pyrogenicity (total rise in ° C. of 3 rabbits),Rabbit pyrogen test; Table 2,0.3 °C
same,Pyrogenicity (total rise in ° C. of 3 rabbits),Rabbit pyrogen test; Table 3,0.3 °C
same,Pyrogenicity (total rise in ° C. of 3 rabbits),Rabbit pyrogen test; Table 4,0.3 °C
same,Pyrogenicity (total rise in ° C. of 3 rabbits),"Rabbit pyrogen test; solubilized in 10% EtOH/WFI, diluted with 5% dextrose in water, Table 1",0.3 °C
same,anti-HBsAg responses (serum titers) versus antigen alone,[1]; Example 2,significantly higher than control sera receiving antigen alone
same,Serum Titers IgG,[1]; [2],"409,600"
same,Serum Titers IgG1,[1]; [2],"204,800"
same,Serum Titers IgG2a,[1]; [2],"409,600"
same,Serum Titers IgG2b,[1]; [2],"51,200"
same,HBsAg titers versus control group which received antigen in PBS,HBsAg; Example 4,increased titers compared to the control group
same,Serum Titers IgG1,HBsAg; [3],"32,000"
same,Serum Titers IgG2a,HBsAg; [3],"2,048,000"
same,Levels of TNF-α produced,TNF-α,did not produce levels of TNF-α that could be detected
same,Levels of IL-1β produced,"IL-1β; 1, 5, and 10 μg/ml, 4 hr at 37° C.",did not produce detectable levels of IL-1β
same,"Relative induction of cytokines (IL-1β), MPL® immunostimulant assigned a value of 1",IL-1β; relative to MPL® immunostimulant = 1,≤ 0.05
same,Maximal iNOS activity / iNOS induction,iNOS,essentially inactive
